Results from ChEMBL document CHEMBL5038625, “Application of the dual-tail approach for the design and synthesis of novel Thiopyrimidine-Benzenesulfonamide hybrids as selective carbonic anhydrase inhibitors” (Eur J Med Chem, 2022).

What was measured:
[1] = molecular target: Carbonic anhydrase 9 (Homo sapiens, UniProt Q16790); test: Inhibition of human CA9 preincubated for 15 mins by phenol red dye based stopped flow CO2 hydration assay
[2] = system: SF-539; test: Antiproliferative activity against human SF-539 cells assessed as cell growth inhibition at 10 uM incubated for 24 hrs by sulforhodamine B assay; type: functional; settings: read-out: GI
[3] = system: CCRF-CEM; test: Antiproliferative activity against human CCRF-CEM cells assessed as cell growth inhibition at 10 uM incubated for 24 hrs by sulforhodamine B assay; type: functional; settings: read-out: GI
[4] = system: HL-60; test: Antiproliferative activity against human HL-60 cells assessed as cell growth inhibition at 10 uM incubated for 24 hrs by sulforhodamine B assay; type: functional; settings: read-out: GI
[5] = system: K562; test: Antiproliferative activity against human K562 cells assessed as cell growth inhibition at 10 uM incubated for 24 hrs by sulforhodamine B assay; type: functional; settings: read-out: GI
[6] = system: MOLT-4; test: Antiproliferative activity against human MOLT-4 cells assessed as cell growth inhibition at 10 uM incubated for 24 hrs by sulforhodamine B assay; type: functional; settings: read-out: GI
[7] = system: RPMI-8226; test: Antiproliferative activity against human RPMI-8226 cells assessed as cell growth inhibition at 10 uM incubated for 24 hrs by sulforhodamine B assay; type: functional; settings: read-out: GI
[8] = system: SR; test: Antiproliferative activity against human SR cells assessed as cell growth inhibition at 10 uM incubated for 24 hrs by sulforhodamine B assay; type: functional; settings: read-out: GI
[9] = system: A549; test: Antiproliferative activity against human A549 cells assessed as cell growth inhibition at 10 uM incubated for 24 hrs by sulforhodamine B assay; type: functional; settings: read-out: GI
[10] = system: EKVX; test: Antiproliferative activity against human EKVX cells assessed as cell growth inhibition at 10 uM incubated for 24 hrs by sulforhodamine B assay; type: functional; settings: read-out: GI
[11] = system: NCI-H226; test: Antiproliferative activity against human NCI-H226 cells assessed as cell growth inhibition at 10 uM incubated for 24 hrs by sulforhodamine B assay; type: functional; settings: read-out: GI
[12] = system: NCI-H23; test: Antiproliferative activity against human NCI-H23 cells assessed as cell growth inhibition at 10 uM incubated for 24 hrs by sulforhodamine B assay; type: functional; settings: read-out: GI
[13] = Antiproliferative activity against human […] cells assessed as cell growth inhibition at 10 uM incubated for 24 hrs by sulforhodamine B assay; type: functional; settings: read-out: GI
[14] = system: NCI-H460; test: Antiproliferative activity against human NCI-H460 cells assessed as cell growth inhibition at 10 uM incubated for 24 hrs by sulforhodamine B assay; type: functional; settings: read-out: GI
[15] = system: NCI-H522; test: Antiproliferative activity against human NCI-H522 cells assessed as cell growth inhibition at 10 uM incubated for 24 hrs by sulforhodamine B assay; type: functional; settings: read-out: GI
[16] = system: COLO 205; test: Antiproliferative activity against human COLO 205 cells assessed as cell growth inhibition at 10 uM incubated for 24 hrs by sulforhodamine B assay; type: functional; settings: read-out: GI
[17] = system: HCT-116; test: Antiproliferative activity against human HCT-116 cells assessed as cell growth inhibition at 10 uM incubated for 24 hrs by sulforhodamine B assay; type: functional; settings: read-out: GI
[18] = system: HCT-15; test: Antiproliferative activity against human HCT-15 cells assessed as cell growth inhibition at 10 uM incubated for 24 hrs by sulforhodamine B assay; type: functional; settings: read-out: GI
[19] = system: HT-29; test: Antiproliferative activity against human HT-29 cells assessed as cell growth inhibition at 10 uM incubated for 24 hrs by sulforhodamine B assay; type: functional; settings: read-out: GI
[20] = system: KM12; test: Antiproliferative activity against human KM12 cells assessed as cell growth inhibition at 10 uM incubated for 24 hrs by sulforhodamine B assay; type: functional; settings: read-out: GI
[21] = system: SW-620; test: Antiproliferative activity against human SW-620 cells assessed as cell growth inhibition at 10 uM incubated for 24 hrs by sulforhodamine B assay; type: functional; settings: read-out: GI
[22] = system: SF-268; test: Antiproliferative activity against human SF-268 cells assessed as cell growth inhibition at 10 uM incubated for 24 hrs by sulforhodamine B assay; type: functional; settings: read-out: GI
[23] = system: SF-295; test: Antiproliferative activity against human SF-295 cells assessed as cell growth inhibition at 10 uM incubated for 24 hrs by sulforhodamine B assay; type: functional; settings: read-out: GI
[24] = system: SNB-19; test: Antiproliferative activity against human SNB-19 cells assessed as cell growth inhibition at 10 uM incubated for 24 hrs by sulforhodamine B assay; type: functional; settings: read-out: GI
[25] = system: SNB-75; test: Antiproliferative activity against human SNB-75 cells assessed as cell growth inhibition at 10 uM incubated for 24 hrs by sulforhodamine B assay; type: functional; settings: read-out: GI
[26] = system: U-251; test: Antiproliferative activity against human U-251 cells assessed as cell growth inhibition at 10 uM incubated for 24 hrs by sulforhodamine B assay; type: functional; settings: read-out: GI
[27] = system: LOX IMVI; test: Antiproliferative activity against human LOX IMVI cells assessed as cell growth inhibition at 10 uM incubated for 24 hrs by sulforhodamine B assay; type: functional; settings: read-out: GI
[28] = system: M14; test: Antiproliferative activity against human M14 cells assessed as cell growth inhibition at 10 uM incubated for 24 hrs by sulforhodamine B assay; type: functional; settings: read-out: GI
[29] = system: MDA-MB-435; test: Antiproliferative activity against human MDA-MB-435 cells assessed as cell growth inhibition at 10 uM incubated for 24 hrs by sulforhodamine B assay; type: functional; settings: read-out: GI
[30] = system: SK-MEL-5; test: Antiproliferative activity against human SK-MEL-5 cells assessed as cell growth inhibition at 10 uM incubated for 24 hrs by sulforhodamine B assay; type: functional; settings: read-out: GI
[31] = system: UACC-62; test: Antiproliferative activity against human UACC-62 cells assessed as cell growth inhibition at 10 uM incubated for 24 hrs by sulforhodamine B assay; type: functional; settings: read-out: GI
[32] = system: IGROV-1; test: Antiproliferative activity against human IGROV-1 cells assessed as cell growth inhibition at 10 uM incubated for 24 hrs by sulforhodamine B assay; type: functional; settings: read-out: GI
[33] = system: OVCAR-3; test: Antiproliferative activity against human OVCAR-3 cells assessed as cell growth inhibition at 10 uM incubated for 24 hrs by sulforhodamine B assay; type: functional; settings: read-out: GI
[34] = system: OVCAR-4; test: Antiproliferative activity against human OVCAR-4 cells assessed as cell growth inhibition at 10 uM incubated for 24 hrs by sulforhodamine B assay; type: functional; settings: read-out: GI
[35] = system: OVCAR-8; test: Antiproliferative activity against human OVCAR-8 cells assessed as cell growth inhibition at 10 uM incubated for 24 hrs by sulforhodamine B assay; type: functional; settings: read-out: GI
[36] = system: NCI/ADR-RES; test: Antiproliferative activity against human NCI-ADR-RES cells assessed as cell growth inhibition at 10 uM incubated for 24 hrs by sulforhodamine B assay; type: functional; settings: read-out: GI
[37] = system: A498; test: Antiproliferative activity against human A498 cells assessed as cell growth inhibition at 10 uM incubated for 24 hrs by sulforhodamine B assay; type: functional; settings: read-out: GI
[38] = system: ACHN; test: Antiproliferative activity against human ACHN cells assessed as cell growth inhibition at 10 uM incubated for 24 hrs by sulforhodamine B assay; type: functional; settings: read-out: GI
[39] = system: CAKI-1; test: Antiproliferative activity against human CAKI-1 cells assessed as cell growth inhibition at 10 uM incubated for 24 hrs by sulforhodamine B assay; type: functional; settings: read-out: GI
[40] = system: RXF 393; test: Antiproliferative activity against human RXF 393 cells assessed as cell growth inhibition at 10 uM incubated for 24 hrs by sulforhodamine B assay; type: functional; settings: read-out: GI
[41] = system: SN12C; test: Antiproliferative activity against human SN12C cells assessed as cell growth inhibition at 10 uM incubated for 24 hrs by sulforhodamine B assay; type: functional; settings: read-out: GI
[42] = system: UO-31; test: Antiproliferative activity against human UO-31 cells assessed as cell growth inhibition at 10 uM incubated for 24 hrs by sulforhodamine B assay; type: functional; settings: read-out: GI
[43] = system: PC-3; test: Antiproliferative activity against human PC-3 cells assessed as cell growth inhibition at 10 uM incubated for 24 hrs by sulforhodamine B assay; type: functional; settings: read-out: GI
[44] = system: DU-145; test: Antiproliferative activity against human DU-145 cells assessed as cell growth inhibition at 10 uM incubated for 24 hrs by sulforhodamine B assay; type: functional; settings: read-out: GI
[45] = system: MCF7; test: Antiproliferative activity against human MCF7 cells assessed as cell growth inhibition at 10 uM incubated for 24 hrs by sulforhodamine B assay; type: functional; settings: read-out: GI
[46] = system: Hs-578T; test: Antiproliferative activity against human HS-578T cells assessed as cell growth inhibition at 10 uM incubated for 24 hrs by sulforhodamine B assay; type: functional; settings: read-out: GI
[47] = system: T47D; test: Antiproliferative activity against human T47D cells assessed as cell growth inhibition at 10 uM incubated for 24 hrs by sulforhodamine B assay; type: functional; settings: read-out: GI
[48] = system: MDA-MB-468; test: Antiproliferative activity against human MDA-MB-468 cells assessed as cell growth inhibition at 10 uM incubated for 24 hrs by sulforhodamine B assay; type: functional; settings: read-out: GI
[49] = system: MDA-MB-231; test: Antiproliferative activity against human MDA-MB-231 cells assessed as cell growth inhibition at 10 uM incubated for 24 hrs by sulforhodamine B assay; type: functional; settings: read-out: GI

Ki [1]: 60.1 nM
Compound: COc1ccc(OC)c(-c2nc(SCC(=O)c3ccc(Br)cc3)nc(Nc3cccc(S(N)(=O)=O)c3)c2C#N)c1
inhibition of growth at 10 µM [2]: 16.5%
inhibition of growth at 10 µM [3]: 20.1%
inhibition of growth at 10 µM [4]: 10.3%
inhibition of growth at 10 µM [5]: 29.5%
inhibition of growth at 10 µM [6]: 45.3%
inhibition of growth at 10 µM [7]: 18.5%
inhibition of growth at 10 µM [8]: 30.5%
inhibition of growth at 10 µM [9]: 26.7%
inhibition of growth at 10 µM [10]: 18.4%
inhibition of growth at 10 µM [11]: 15.2%
inhibition of growth at 10 µM [12]: 7.31%
inhibition of growth at 10 µM [13]: 14%
inhibition of growth at 10 µM [14]: 22.5%
inhibition of growth at 10 µM [15]: 5.79%
inhibition of growth at 10 µM [16]: 14.6%
inhibition of growth at 10 µM [17]: 27.9%
inhibition of growth at 10 µM [18]: 23.4%
inhibition of growth at 10 µM [19]: 9.87%
inhibition of growth at 10 µM [20]: 11.8%
inhibition of growth at 10 µM [21]: 13.9%
inhibition of growth at 10 µM [22]: 23.7%
inhibition of growth at 10 µM [23]: 13.3%
inhibition of growth at 10 µM [24]: 16.4%
inhibition of growth at 10 µM [25]: 23.1%
inhibition of growth at 10 µM [26]: 19.1%
inhibition of growth at 10 µM [27]: 16.6%
inhibition of growth at 10 µM [28]: 6.53%
inhibition of growth at 10 µM [29]: 15.4%
inhibition of growth at 10 µM [30]: 5.18%
inhibition of growth at 10 µM [31]: 11.6%
inhibition of growth at 10 µM [32]: 8.33%
inhibition of growth at 10 µM [33]: 22.4%
inhibition of growth at 10 µM [34]: 24.1%
inhibition of growth at 10 µM [35]: 14.2%
inhibition of growth at 10 µM [36]: 8.77%
inhibition of growth at 10 µM [37]: 22.5%
inhibition of growth at 10 µM [38]: 20.2%
inhibition of growth at 10 µM [39]: 52.1%
inhibition of growth at 10 µM [40]: 39.8%
inhibition of growth at 10 µM [41]: 18.1%
inhibition of growth at 10 µM [42]: 50.2%
inhibition of growth at 10 µM [43]: 34.1%
inhibition of growth at 10 µM [44]: 12.9%
inhibition of growth at 10 µM [45]: 28.6%
inhibition of growth at 10 µM [46]: 25.5%
inhibition of growth at 10 µM [47]: 23.9%
inhibition of growth at 10 µM [48]: 15.4%
inhibition of growth at 10 µM [49]: 23.8%
